According to patent US12570642B2, “GLP-IR modulating compounds” (Gilead Sciences, Inc., priority 2021, dated 2026):

target: GLP-1R (Homo sapiens, UniProt P43220); test: GLP-1R Activation - cAMP Assay; assay type: cell-based; conditions: cAMP increase in CHO cells stably expressing GLP-1R; each compound run on one of the two cAMP assays (Assay 1 or Assay 2, not specified)
Method in brief: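 cAMP rise read by HTRF after 30 min agonist exposure (10-point titration, 37 °C) in HBSS/20 mM Hepes/0.1% BSA, following 1 h pre-incubation. Cells: stable GLP-1R CHO line, 1,000/well, seeded overnight. Sigmoidal fit of response vs log concentration gives EC50.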

Chain of GLP-1R (P43220 24-463): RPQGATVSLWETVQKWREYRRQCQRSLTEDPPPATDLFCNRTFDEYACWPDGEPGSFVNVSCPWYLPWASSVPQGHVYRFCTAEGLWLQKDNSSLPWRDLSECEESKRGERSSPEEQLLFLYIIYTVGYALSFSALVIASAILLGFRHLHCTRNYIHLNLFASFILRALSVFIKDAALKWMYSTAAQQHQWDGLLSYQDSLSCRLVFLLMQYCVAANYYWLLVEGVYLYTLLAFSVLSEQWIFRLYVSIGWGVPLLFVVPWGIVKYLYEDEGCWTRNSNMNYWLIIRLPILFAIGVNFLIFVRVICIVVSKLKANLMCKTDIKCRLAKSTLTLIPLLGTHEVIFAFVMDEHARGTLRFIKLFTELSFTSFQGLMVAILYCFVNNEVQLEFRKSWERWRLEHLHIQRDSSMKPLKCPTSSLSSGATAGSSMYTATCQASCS

EC50	Structure (SMILES)
4.01 nM	N#Cc1ccc(COc2cccc(-c3cc(F)c(Cc4nc5ccc(C(=O)O)cc5n4C4COC5(COC5)C4)cc3F)n2)c(F)c1 (stereo not drawn) [Example 202, 2-(4-(6-((4-cyano-2-fluorobenzyl)oxy)pyridin-2-yl)-2,5-difluorobenzyl)-1-(2,5-dioxaspiro[3.4]octan-7-yl)-1H-benzo[d]imidazole-6-carboxylic acid]
38.3 nM	N#Cc1ccc(COc2cccc(-c3cc(F)c(Cc4nc5ccc(C(=O)O)cc5n4C4COC5(CC5)C4)cc3F)n2)c(F)c1 (stereo not drawn) [Example 203, 2-(4-(6-((4-cyano-2-fluorobenzyl)oxy)pyridin-2-yl)-2,5-difluorobenzyl)-1-(4-oxaspiro[2.4]heptan-6-yl)-1H-benzo[d]imidazole-6-carboxylic acid]
0.09 nM	CC1(C)COC[C@H]1n1c(Cc2cc(F)c(-c3cccc(OCc4cc(F)c(C#N)cc4F)n3)cc2F)nc2c(F)cc(C(=O)O)cc21 [Example 204, (S)-2-(4-(6-((4-cyano-2,5-difluorobenzyl)oxy)pyridin-2-yl)-2,5-difluorobenzyl)-1-(4,4-dimethyltetrahydrofuran-3-yl)-4-fluoro-1H-benzo[d]imidazole-6-carboxylic acid]
0.097 nM	CC1(C)COC[C@H]1n1c(Cc2cc(F)c(-c3ccnc(OCc4ccc(C#N)cc4F)n3)cc2F)nc2c(F)cc(C(=O)O)cc21 [Example 205, (S)-2-(4-(2-((4-cyano-2-fluorobenzyl)oxy)pyrimidin-4-yl)-2,5-difluorobenzyl)-1-(4,4-dimethyltetrahydrofuran-3-yl)-4-fluoro-1H-benzo[d]imidazole-6-carboxylic acid]
0.191 nM	CC1(C)COC[C@H]1n1c(Cc2cc(F)c(-c3nccc(OCc4ccc(C#N)cc4F)n3)cc2F)nc2c(F)cc(C(=O)O)cc21 [Example 206, (S)-2-(4-(4-((4-cyano-2-fluorobenzyl)oxy)pyrimidin-2-yl)-2,5-difluorobenzyl)-1-(4,4-dimethyltetrahydrofuran-3-yl)-4-fluoro-1H-benzo[d]imidazole-6-carboxylic acid]
0.168 nM	Cc1cc(Cc2nc3c(F)cc(C(=O)O)cc3n2[C@@H]2COCC2(C)C)c(F)cc1-c1ccc(F)c(OCc2ccc(C#N)cc2F)n1 [Example 207, (S)-2-(4-(6-((4-cyano-2-fluorobenzyl)oxy)-5-fluoropyridin-2-yl)-2-fluoro-5-methylbenzyl)-1-(4,4-dimethyltetrahydrofuran-3-yl)-4-fluoro-1H-benzo[d]imidazole-6-carboxylic acid]
0.249 nM	Cc1cc(Cc2nc3c(F)cc(C(=O)O)cc3n2[C@@H]2COCC2(C)C)c(F)cc1-c1cccc(OCc2ccc(C#N)cc2F)n1 [Example 208, (S)-2-(4-(6-((4-cyano-2-fluorobenzyl)oxy)pyridin-2-yl)-2-fluoro-5-methylbenzyl)-1-(4,4-dimethyltetrahydrofuran-3-yl)-4-fluoro-1H-benzo[d]imidazole-6-carboxylic acid]
12.3 nM	N#Cc1ccc(COc2cccc(-c3ccc(Cc4nc5ccc(C(=O)O)cc5n4[C@@H]4CCOC4)c(F)c3)n2)c(F)c1 [Example 209, (R)-2-(4-(6-((4-cyano-2-fluorobenzyl)oxy)pyridin-2-yl)-2-fluorobenzyl)-1-(tetrahydrofuran-3-yl)-1H-benzo[d]imidazole-6-carboxylic acid]
14.1 nM	N#Cc1ccc(COc2cccc(-c3ccc(Cc4nc5ccc(C(=O)O)cc5n4[C@H]4CCOC4)c(F)c3)n2)c(F)c1 [Example 210, (S)-2-(4-(6-((4-cyano-2-fluorobenzyl)oxy)pyridin-2-yl)-2-fluorobenzyl)-1-(tetrahydrofuran-3-yl)-1H-benzo[d]imidazole-6-carboxylic acid]
0.258 nM	Cc1cc(Cc2nc3c(F)cc(C(=O)O)cc3n2[C@@H]2COCC2(C)C)c(F)cc1-c1ccnc(OCc2ccc(Cl)cc2)n1 [Example 211, (S)-2-(4-(2-((4-chlorobenzyl)oxy)pyrimidin-4-yl)-2-fluoro-5-methylbenzyl)-1-(4,4-dimethyltetrahydrofuran-3-yl)-4-fluoro-1H-benzo[d]imidazole-6-carboxylic acid]
0.379 nM	Cc1cc(Cc2nc3c(F)cc(C(=O)O)cc3n2[C@@H]2COCC2(C)C)c(Cl)cc1-c1ccnc(OCc2ccc(Cl)cc2)n1 [Example 212, (S)-2-(2-chloro-4-(2-((4-chlorobenzyl)oxy)pyrimidin-4-yl)-5-methylbenzyl)-1-(4,4-dimethyltetrahydrofuran-3-yl)-4-fluoro-1H-benzo[d]imidazole-6-carboxylic acid]
0.042 nM	COCCn1c(Cc2c(F)cc(-c3ccc(F)c(OCc4cnc(-n5ccnn5)cc4Cl)n3)c(F)c2F)nc2c(F)cc(C(=O)O)cc21 [Example 213, 2-(4-(6-((4-chloro-6-(1H-1,2,3-triazol-1-yl)pyridin-3-yl)methoxy)-5-fluoropyridin-2-yl)-2,3,6-trifluorobenzyl)-4-fluoro-1-(2-methoxyethyl)-1H-benzo[d]imidazole-6-carboxylic acid]
0.299 nM	COCCn1c(Cc2cc(F)c(-c3cccc(OCc4cnc(-n5ccnn5)cc4Cl)n3)cc2F)nc2ccc(C(=O)O)cc21 [Example 214, 2-(4-(6-((4-chloro-6-(1H-1,2,3-triazol-1-yl)pyridin-3-yl)methoxy)pyridin-2-yl)-2,5-difluorobenzyl)-1-(2-methoxyethyl)-1H-benzo[d]imidazole-6-carboxylic acid]
0.21 nM	COCCn1c(Cc2cc(F)c(-c3ccc(F)c(OCc4cnc(-n5ccnn5)cc4Cl)n3)cc2F)nc2ccc(C(=O)O)cc21 [Example 215, 2-(4-(6-((4-chloro-6-(1H-1,2,3-triazol-1-yl)pyridin-3-yl)methoxy)-5-fluoropyridin-2-yl)-2,5-difluorobenzyl)-1-(2-methoxyethyl)-1H-benzo[d]imidazole-6-carboxylic acid]
0.279 nM	Cc1cc(Cc2nc3ccc(C(=O)O)cc3n2[C@@H]2COCC2(C)C)c(Cl)cc1-c1ccnc(OCc2ccc(Cl)cc2)n1 [Example 218, (S)-2-(2-chloro-4-(2-((4-chlorobenzyl)oxy)pyrimidin-4-yl)-5-methylbenzyl)-1-(4,4-dimethyltetrahydrofuran-3-yl)-1H-benzo[d]imidazole-6-carboxylic acid]
0.189 nM	Cc1cc(Cc2nc3ccc(C(=O)O)cc3n2[C@@H]2COCC2(C)C)c(F)cc1-c1ccnc(OCc2ccc(Cl)cc2)n1 [Example 219, (S)-2-(4-(2-((4-chlorobenzyl)oxy)pyrimidin-4-yl)-2-fluoro-5-methylbenzyl)-1-(4,4-dimethyltetrahydrofuran-3-yl)-1H-benzo[d]imidazole-6-carboxylic acid]
0.216 nM	O=C(O)c1cc(F)c2nc(Cc3cc(F)c(-c4cccc(OCc5ccc(Cl)cc5F)n4)cc3F)n(C3COCC34CC4)c2c1 (stereo not drawn) [Example 220, 2-(4-(6-((4-chloro-2-fluorobenzyl)oxy)pyridin-2-yl)-2,5-difluorobenzyl)-4-fluoro-1-(5-oxaspiro[2.4]heptan-7-yl)-1H-benzo[d]imidazole-6-carboxylic acid]
0.508 nM	COCCn1c(Cc2cc(F)c(-c3cccc(OCc4ccc(-n5ccnn5)nc4)n3)cc2F)nc2c(F)cc(C(=O)O)cc21 [Example 221, 2-(4-(6-((6-(1H-1,2,3-triazol-1-yl)pyridin-3-yl)methoxy)pyridin-2-yl)-2,5-difluorobenzyl)-4-fluoro-1-(2-methoxyethyl)-1H-benzo[d]imidazole-6-carboxylic acid]
0.136 nM	COCCn1c(Cc2c(F)cc(-c3cccc(OCc4ccc(-n5ccnn5)cc4)n3)c(F)c2F)nc2c(F)cc(C(=O)O)cc21 [Example 222, 2-(4-(6-((4-(1H-1,2,3-triazol-1-yl)benzyl)oxy)pyridin-2-yl)-2,3,6-trifluorobenzyl)-4-fluoro-1-(2-methoxyethyl)-1H-benzo[d]imidazole-6-carboxylic acid]
0.126 nM	COCCn1c(Cc2c(F)cc(-c3ccc(F)c(OCc4ccc(-n5ccnn5)cc4)n3)c(F)c2F)nc2c(F)cc(C(=O)O)cc21 [Example 223, 2-(4-(6-((4-(1H-1,2,3-triazol-1-yl)benzyl)oxy)-5-fluoropyridin-2-yl)-2,3,6-trifluorobenzyl)-4-fluoro-1-(2-methoxyethyl)-1H-benzo[d]imidazole-6-carboxylic acid]
0.515 nM	N#Cc1ccc(COc2nc(-c3cc(F)c(Cc4nc5c(F)cc(C(=O)O)cc5n4C4COCC45CC5)cc3F)ccc2F)c(F)c1 (stereo not drawn) [Example 224, 2-(4-(6-((4-cyano-2-fluorobenzyl)oxy)-5-fluoropyridin-2-yl)-2,5-difluorobenzyl)-4-fluoro-1-(5-oxaspiro[2.4]heptan-7-yl)-1H-benzo[d]imidazole-6-carboxylic acid]
7.14 nM	COCCn1c(Cc2cc(C)c(-c3ccc(F)c(OCc4ccc(C#N)cc4F)n3)cc2Cl)nc2c(F)cc(C(=O)O)cc21 [Example 225, 2-(2-chloro-4-(6-((4-cyano-2-fluorobenzyl)oxy)-5-fluoropyridin-2-yl)-5-methylbenzyl)-4-fluoro-1-(2-methoxyethyl)-1H-benzo[d]imidazole-6-carboxylic acid]
0.022 nM	COCCn1c(Cc2c(F)cc(-c3cccc(OCc4cnc(-n5ccnn5)cc4Cl)n3)c(F)c2F)nc2c(F)cc(C(=O)O)cc21 [Example 226, 2-(4-(6-((4-chloro-6-(1H-1,2,3-triazol-1-yl)pyridin-3-yl)methoxy)pyridin-2-yl)-2,3,6-trifluorobenzyl)-4-fluoro-1-(2-methoxyethyl)-1H-benzo[d]imidazole-6-carboxylic acid]
4.8 nM	COCCn1c(Cc2cc(C)c(-c3cccc(OCc4ccc(C#N)cc4F)n3)cc2Cl)nc2c(F)cc(C(=O)O)cc21 [Example 227, 2-(2-chloro-4-(6-((4-cyano-2-fluorobenzyl)oxy)pyridin-2-yl)-5-methylbenzyl)-4-fluoro-1-(2-methoxyethyl)-1H-benzo[d]imidazole-6-carboxylic acid]
